Columns and labels:
Assay type in all cases: functional
NCI-H460 = assay: Cytotoxicity against human NCI-H460 cells after 48 hrs by SRB assay; settings: NCI-H460, 48 h
HL-60(TB) = assay: Cytotoxicity against human HL-60(TB) cells assessed as cellular growth at 100 uM after 48 hrs by SRB assay relative to control
HOP-62 [1] = assay: Cytotoxicity against human HOP62 cells after 48 hrs by SRB assay; settings: HOP-62, 48 h
[2] = Cytotoxicity against human NCI-ADR-RES cells assessed as cellular growth at 100 uM after 48 hrs by SRB assay relative to control
NCI-H226 = assay: Cytotoxicity against human NCI-H226 cells assessed as cellular growth at 1 uM after 48 hrs by SRB assay relative to control
UACC-62 [3] = assay: Cytotoxicity against human UACC62 cells assessed as cellular growth at 0.01 uM after 48 hrs by SRB assay relative to control
BT-549 [4] = assay: Cytotoxicity against human BT549 cells assessed as cellular growth at 0.1 uM after 48 hrs by SRB assay relative to control
MDA-MB-231 = assay: Cytotoxicity against human MDA-MB-231 cells assessed as cellular growth at 0.1 uM after 48 hrs by SRB assay relative to control
SR [5] = assay: Cytotoxicity against human SR cells after 48 hrs by SRB assay
COLO 205 [6] = assay: Cytotoxicity against human COLO205 cells assessed as cellular growth at 0.01 uM after 48 hrs by SRB assay relative to control
OVCAR-4 [7] = assay: Cytotoxicity against human OVCAR4 cells assessed as cellular growth at 100 uM after 48 hrs by SRB assay relative to control
COLO 205 [8] = assay: Cytotoxicity against human COLO205 cells assessed as cellular growth at 100 uM after 48 hrs by SRB assay relative to control
SK-MEL-28 [9] = assay: Cytotoxicity against human SK-MEL-28 cells assessed as cellular growth at 1 uM after 48 hrs by SRB assay relative to control
UACC-62 [10] = assay: Cytotoxicity against human UACC62 cells assessed as cellular growth at 1 uM after 48 hrs by SRB assay relative to control
OVCAR-4 [11] = assay: Cytotoxicity against human OVCAR4 cells assessed as cellular growth at 0.1 uM after 48 hrs by SRB assay relative to control
HOP-62 [12] = assay: Cytotoxicity against human HOP62 cells assessed as cellular growth at 10 uM after 48 hrs by SRB assay relative to control
NCI-H23 = assay: Cytotoxicity against human NCI-H23 cells assessed as cellular growth at 100 uM after 48 hrs by SRB assay relative to control
UO-31 = assay: Cytotoxicity against human UO31 cells after 48 hrs by SRB assay; settings: UO-31, 48 h
SR [13] = assay: Cytotoxicity against human SR cells assessed as cellular growth at 1 uM after 48 hrs by SRB assay relative to control
Malme-3M = assay: Cytotoxicity against human MALME-3M cells after 48 hrs by SRB assay
TK-10 = assay: Cytotoxicity against human TK10 cells after 48 hrs by SRB assay; settings: TK-10, 48 h
[14] = Cytotoxicity against human NCI-ADR-RES cells assessed as cellular growth at 0.01 uM after 48 hrs by SRB assay relative to control
HCT-116 = assay: Cytotoxicity against human HCT116 cells assessed as cellular growth at 100 uM after 48 hrs by SRB assay relative to control
BT-549 [15] = assay: Cytotoxicity against human BT549 cells after 48 hrs by SRB assay; settings: BT-549, 48 h
LOX IMVI = assay: Cytotoxicity against human LOXIMVI cells assessed as cellular growth at 0.1 uM after 48 hrs by SRB assay relative to control
SR [16] = assay: Cytotoxicity against human SR cells assessed as cellular growth at 0.1 uM after 48 hrs by SRB assay relative to control
SF-295 = assay: Cytotoxicity against human SF295 cells after 48 hrs by SRB assay; settings: SF-295, 48 h
MDA-MB-435 = assay: Cytotoxicity against human MDA-MB-435 cells assessed as cellular growth at 1 uM after 48 hrs by SRB assay relative to control
UACC-62 [17] = assay: Cytotoxicity against human UACC62 cells assessed as cellular growth at 0.1 uM after 48 hrs by SRB assay relative to control
SK-MEL-28 [18] = assay: Cytotoxicity against human SK-MEL-28 cells after 48 hrs by SRB assay; settings: SK-MEL-28, 48 h
OVCAR-3 = assay: Cytotoxicity against human OVCAR3 cells assessed as cellular growth at 0.1 uM after 48 hrs by SRB assay relative to control
SNB-75 = assay: Cytotoxicity against human SNB75 cells assessed as cellular growth at 0.1 uM after 48 hrs by SRB assay relative to control
T47D = assay: Cytotoxicity against human T47D cells assessed as cellular growth at 1 uM after 48 hrs by SRB assay relative to control
SR [19] = assay: Cytotoxicity against human SR cells assessed as cellular growth at 100 uM after 48 hrs by SRB assay relative to control
[20] = read-out: LC50 (the source's name)
[21] = read-out: pLC50 (the source's name) (converted)

SMILES: CN1CCN(CCCn2c3c(sc4ncccc43)c(=O)n3nnc(-c4ccccc4)c23)CC1
- GI50 (NCI-H460; read-out: GI50): 1.92 µM
- CC50 (NCI-H460; [20]): 8.13 µM
- TGI (NCI-H460; read-out: TGI): 3.95 µM
- GI50 (NCI-H460; read-out: pGI50 (converted)): 1.91 µM
- CC50 (NCI-H460; [21]): 8.13 µM
- TGI (NCI-H460; read-out: pTGI (converted)): 3.98 µM
- Activity (HL-60(TB)): -62%
- GI50 (HOP-62 [1]; read-out: GI50): 1.78 µM
- CC50 (HOP-62 [1]; [20]): 6.11 µM
- TGI (HOP-62 [1]; read-out: TGI): 3.3 µM
- GI50 (HOP-62 [1]; read-out: pGI50 (converted)): 1.78 µM
- CC50 (HOP-62 [1]; [21]): 6.17 µM
- TGI (HOP-62 [1]; read-out: pTGI (converted)): 3.31 µM
- Activity [2]: -62%
- Activity (NCI-H226): 85%
- Activity (UACC-62 [3]): 91%
- Activity (BT-549 [4]): 98%
- Activity (MDA-MB-231): 100%
- GI50 (SR [5]; read-out: GI50): 2.25 µM
- TGI (SR [5]; read-out: TGI): 4.74 µM
- GI50 (SR [5]; read-out: pGI50 (converted)): 2.24 µM
- TGI (SR [5]; read-out: pTGI (converted)): 4.79 µM
- Activity (COLO 205 [6]): 95%
- Activity (OVCAR-4 [7]): -70%
- Activity (COLO 205 [8]): -86%
- Activity (SK-MEL-28 [9]): 99%
- Activity (UACC-62 [10]): 84%
- Activity (OVCAR-4 [11]): 101%
- Activity (HOP-62 [12]): -90%
- Activity (NCI-H23): -59%
- GI50 (UO-31; read-out: GI50): 1.03 µM
- CC50 (UO-31; [20]): 5.94 µM
- TGI (UO-31; read-out: TGI): 2.47 µM
- GI50 (UO-31; read-out: pGI50 (converted)): 1.02 µM
- CC50 (UO-31; [21]): 5.89 µM
- TGI (UO-31; read-out: pTGI (converted)): 2.45 µM
- Activity (SR [13]): 104%
- GI50 (Malme-3M; read-out: GI50): 1.97 µM
- CC50 (Malme-3M; [20]): 6.72 µM
- TGI (Malme-3M; read-out: TGI): 3.64 µM
- GI50 (Malme-3M; read-out: pGI50 (converted)): 1.95 µM
- CC50 (Malme-3M; [21]): 6.76 µM
- TGI (Malme-3M; read-out: pTGI (converted)): 3.63 µM
- GI50 (TK-10; read-out: GI50): 2.15 µM
- TGI (TK-10; read-out: TGI): 3.75 µM
- GI50 (TK-10; read-out: pGI50 (converted)): 2.14 µM
- TGI (TK-10; read-out: pTGI (converted)): 3.72 µM
- Activity [14]: 96%
- Activity (HCT-116): -64%
- GI50 (BT-549 [15]; read-out: GI50): 14.7 µM
- LC50 (concentration killing 50% of cells) (BT-549 [15]; read-out: LC50): 63.9 µM
- TGI (BT-549 [15]; read-out: TGI): 30.7 µM
- GI50 (BT-549 [15]; read-out: pGI50 (converted)): 14.8 µM
- LC50 (concentration killing 50% of cells) (BT-549 [15]; read-out: pLC50 (converted)): 64.6 µM
- TGI (BT-549 [15]; read-out: pTGI (converted)): 30.9 µM
- Activity (LOX IMVI): 88%
- Activity (SR [16]): 104%
- GI50 (SF-295; read-out: GI50): 1.96 µM
- CC50 (SF-295; [20]): 6.96 µM
- TGI (SF-295; read-out: TGI): 3.7 µM
- GI50 (SF-295; read-out: pGI50 (converted)): 1.95 µM
- CC50 (SF-295; [21]): 6.92 µM
- TGI (SF-295; read-out: pTGI (converted)): 3.72 µM
- Activity (MDA-MB-435): 99%
- Activity (UACC-62 [17]): 79%
- GI50 (SK-MEL-28 [18]; read-out: GI50): 15.8 µM
- CC50 (SK-MEL-28 [18]; [20]): 55.5 µM
- TGI (SK-MEL-28 [18]; read-out: TGI): 29.6 µM
- GI50 (SK-MEL-28 [18]; read-out: pGI50 (converted)): 15.8 µM
- CC50 (SK-MEL-28 [18]; [21]): 55 µM
- TGI (SK-MEL-28 [18]; read-out: pTGI (converted)): 29.5 µM
- Activity (OVCAR-3): 95%
- Activity (SNB-75): 71%
- Activity (T47D): 103%
- Activity (SR [19]): -42%

From ChEMBL document CHEMBL2401728, “An unexpected Dimroth rearrangement leading to annelated thieno[3,2-d][1,2,3]triazolo[1,5-a]pyrimidines with potent antitumor activity” (Eur J Med Chem, 2013)
